Data from patent publication US9790178B2, “Pyrrolidinyl urea, thiourea, guanidine and cyanoguanidine compounds as TrkA kinase inhibitors” (Array BioPharma Inc., priority 2012, dated 2017).

What was measured:
ARK5 = molecular target: T1, ARK5 (Homo sapiens, UniProt O60285); experiment: KinaseProfiler off-target kinase profiling; type: biochemical; conditions: 10 μM, ATP near Km
T1 construct: purchased Millipore, Inc. (KinaseProfiler service)
How it was run: (§1)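 Off-target profiling uses one compound concentration (10 μM) and an ATP level near the kinase-specific Km; duplicates are averaged and given as POC.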

Rsk1 = molecular target: T2, Rsk1 (Homo sapiens, UniProt Q15418); experiment: KinaseProfiler off-target kinase profiling; type: biochemical; conditions: 10 μM, ATP near Km
T2 construct: purchased Millipore (KinaseProfiler service)
How it was run: as §1

Fyn = molecular target: T3, Fyn (Homo sapiens, UniProt P06241); experiment: KinaseProfiler off-target kinase profiling; type: biochemical; conditions: 10 μM, ATP near Km
T3 construct: purchased Millipore, Inc. (KinaseProfiler service)
How it was run: as §1

EGFR = molecular target: T4, EGFR (Homo sapiens, UniProt P00533); experiment: KinaseProfiler off-target kinase profiling; type: biochemical; conditions: 10 μM, ATP near Km
T4 construct: purchased Millipore, Inc. (KinaseProfiler service)
How it was run: as §1

Fes = molecular target: T5, Fes (Homo sapiens, UniProt P07332); experiment: KinaseProfiler off-target kinase profiling; type: biochemical; conditions: 10 μM, ATP near Km
T5 construct: purchased Millipore, Inc. (KinaseProfiler service)
How it was run: as §1

Ret = molecular target: T6, Ret (Homo sapiens, UniProt P07949); experiment: KinaseProfiler off-target kinase profiling; type: biochemical; conditions: 10 μM, ATP near Km
T6 construct: purchased Millipore (KinaseProfiler service)
How it was run: as §1

FGFR1 = molecular target: T7, FGFR1 (Homo sapiens, UniProt P11362); experiment: KinaseProfiler off-target kinase profiling; type: biochemical; conditions: 10 μM, ATP near Km
T7 construct: purchased Millipore, Inc. (KinaseProfiler service)
How it was run: as §1

MAP4K2 = molecular target: T8, MAP4K2 (Homo sapiens, UniProt Q12851); experiment: KinaseProfiler off-target kinase profiling; type: biochemical; conditions: 10 μM, ATP near Km
T8 construct: purchased Millipore, Inc. (KinaseProfiler service)
How it was run: as §1

mTOR = molecular target: T9, mTOR (Homo sapiens, UniProt P42345); experiment: KinaseProfiler off-target kinase profiling; type: biochemical; conditions: 10 μM, ATP near Km
T9 construct: purchased Millipore, Inc. (KinaseProfiler service)
How it was run: as §1

DAPK1 = molecular target: T10, DAPK1 (Homo sapiens, UniProt P53355); experiment: KinaseProfiler off-target kinase profiling; type: biochemical; conditions: 10 μM, ATP near Km
T10 construct: purchased Millipore, Inc. (KinaseProfiler service)
How it was run: as §1

IR = molecular target: T11, IR (Homo sapiens, UniProt P06213); experiment: KinaseProfiler off-target kinase profiling; type: biochemical; conditions: 10 μM, ATP near Km
T11 construct: purchased Millipore, Inc. (KinaseProfiler service)
How it was run: as §1

CK2alpha2 = molecular target: T12, CK2alpha2 (Homo sapiens, UniProt P19784); experiment: KinaseProfiler off-target kinase profiling; type: biochemical; conditions: 10 μM, ATP near Km
T12 construct: purchased Millipore, Inc. (KinaseProfiler service)
How it was run: as §1

PAK6 = molecular target: T13, PAK6 (Homo sapiens, UniProt Q9NQU5); experiment: KinaseProfiler off-target kinase profiling; type: biochemical; conditions: 10 μM, ATP near Km
T13 construct: purchased Millipore, Inc. (KinaseProfiler service)
How it was run: as §1

KIT = molecular target: T14, KIT (Homo sapiens, UniProt P10721); experiment: KinaseProfiler off-target kinase profiling; type: biochemical; conditions: 10 μM, ATP near Km
T14 construct: purchased Millipore, Inc. (KinaseProfiler service)
How it was run: as §1

DAPK2 = molecular target: T15, DAPK2 (Homo sapiens, UniProt Q9UIK4); experiment: KinaseProfiler off-target kinase profiling; type: biochemical; conditions: 10 μM, ATP near Km
T15 construct: purchased Millipore, Inc. (KinaseProfiler service)
How it was run: as §1

ERK2 = molecular target: T16, ERK2 (Homo sapiens, UniProt P28482); experiment: KinaseProfiler off-target kinase profiling; type: biochemical; conditions: 10 μM, ATP near Km
T16 construct: purchased Millipore, Inc. (KinaseProfiler service)
How it was run: as §1

FAK = molecular target: T17, FAK (Homo sapiens, UniProt Q05397); experiment: KinaseProfiler off-target kinase profiling; type: biochemical; conditions: 10 μM, ATP near Km
T17 construct: purchased Millipore, Inc. (KinaseProfiler service)
How it was run: as §1

Pim-2 = molecular target: T18, Pim-2 (Homo sapiens, UniProt Q9P1W9); experiment: KinaseProfiler off-target kinase profiling; type: biochemical; conditions: 10 μM, ATP near Km
T18 construct: purchased Millipore, Inc. (KinaseProfiler service)
How it was run: as §1

EphA5 = molecular target: T19, EphA5 (Homo sapiens, UniProt P54756); experiment: KinaseProfiler off-target kinase profiling; type: biochemical; conditions: 10 μM, ATP near Km
T19 construct: purchased Millipore, Inc. (KinaseProfiler service)
How it was run: as §1

TrkA = molecular target: T20, TrkA (Homo sapiens, UniProt P04629); experiment: KinaseProfiler off-target kinase profiling; type: biochemical; conditions: 10 μM, ATP near Km
T20 construct: purchased Millipore, Inc. (KinaseProfiler service)
How it was run: as §1

CDK5/p35 = molecular target: T21, CDK5/p35 (Homo sapiens, UniProt Q00535); experiment: KinaseProfiler off-target kinase profiling; type: biochemical; conditions: 10 μM, ATP near Km
T21 construct: purchased Millipore, Inc. (KinaseProfiler service)
How it was run: as §1

TNK2 = molecular target: T22, TNK2 (Homo sapiens, UniProt Q07912); experiment: KinaseProfiler off-target kinase profiling; type: biochemical; conditions: 10 μM, ATP near Km
T22 construct: purchased Millipore, Inc. (KinaseProfiler service)
How it was run: as §1

TEC Activated = molecular target: T23, TEC Activated (Homo sapiens, UniProt P42680); experiment: KinaseProfiler off-target kinase profiling; type: biochemical; conditions: 10 μM, ATP near Km
T23 construct: purchased Millipore, Inc. (KinaseProfiler service)
How it was run: as §1

c-RAF = experiment: KinaseProfiler off-target kinase profiling; type: biochemical; conditions: 10 μM, ATP near Km
How it was run: as §1

[1] = system: off-target kinases (panel of about 230 other kinases); experiment: KinaseProfiler full kinase panel, overall selectivity; type: biochemical; conditions: 10 μM concentration
Description: A representative compound of the invention (Example 20) was tested for off-target kinase activity at a concentration of 10 μM by Millipore, Inc. in their KinaseProfiler™ service against all the kinases available in their full kinase panel. The compound was run in duplicate at a concentration of ATP near the Km for each individual kinase according to Millipore's specifications. The results are shown in Table B. Data are reported as percent of control (POC) and are the average of the two replicates.
Such a drug profile would represent a safer approach to treating pain, inflammation, cancer and certain skin diseases than has been previously reported.

[2] = molecular target: T24, His-tagged recombinant human TrkA (Homo sapiens, UniProt P04629); experiment: TrkA LanthaScreen Eu Kinase Binding Assay; conditions: averaged IC50 values; read-out: TrkA enzyme IC50
T24 construct: 6HIS tagged cytoplasmic domain from Invitrogen, Catalog No. PV3144; purchased Invitrogen PV3144
Description: TrkA binding activity was determined in a TrkA LanthaScreen™ Eu Kinase Binding Assay. 5 nM His-tagged recombinant human TrkA (6HIS tagged cytoplasmic domain from Invitrogen, Catalog No. PV3144) was incubated with 4 nM Alexa-Fluor® Tracer 236 (Invitrogen Cat. No. PV5592), 2 nM biotinylated anti-His (Invitrogen Cat. No. PV6090), and 2 nM europium-labeled Streptavidin (Invitrogen Cat. No. PV5899), in buffer (25 mM MOPS, pH 7.5, 5 mM MgCl2, 0.005% Triton X-100). Three fold serial dilutions of compounds of the invention in DMSO were added to a final percentage of 2% DMSO. After 60-minute incubation at 22° C., the reaction was measured using the EnVision mutlimode plate reader (PerkinElmer) via TR-FRET dual wavelength detection at […]. The percent of control was calculated using a ratiometric emission factor. The IC50 values were determined by fitting a four parameter model to the percent of control data.
Table A provides averaged IC50 values for compounds of the invention when tested in the assay of Example A, where A represents an averaged IC50 value <100 nM; and B represents an averaged IC50 value from 100 to 1,000 nM.

T24 sequence (P04629 440-796 limits assumed): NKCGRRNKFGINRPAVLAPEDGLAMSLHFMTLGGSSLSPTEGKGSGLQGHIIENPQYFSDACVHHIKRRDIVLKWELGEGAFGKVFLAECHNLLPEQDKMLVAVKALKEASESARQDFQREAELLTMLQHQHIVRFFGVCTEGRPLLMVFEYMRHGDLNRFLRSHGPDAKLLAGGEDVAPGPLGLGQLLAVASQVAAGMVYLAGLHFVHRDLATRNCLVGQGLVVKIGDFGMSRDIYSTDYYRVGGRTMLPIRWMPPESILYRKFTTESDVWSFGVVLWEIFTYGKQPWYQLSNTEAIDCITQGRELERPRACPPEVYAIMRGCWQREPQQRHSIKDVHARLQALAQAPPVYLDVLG
T18 sequence (Q9P1W9 whole entry): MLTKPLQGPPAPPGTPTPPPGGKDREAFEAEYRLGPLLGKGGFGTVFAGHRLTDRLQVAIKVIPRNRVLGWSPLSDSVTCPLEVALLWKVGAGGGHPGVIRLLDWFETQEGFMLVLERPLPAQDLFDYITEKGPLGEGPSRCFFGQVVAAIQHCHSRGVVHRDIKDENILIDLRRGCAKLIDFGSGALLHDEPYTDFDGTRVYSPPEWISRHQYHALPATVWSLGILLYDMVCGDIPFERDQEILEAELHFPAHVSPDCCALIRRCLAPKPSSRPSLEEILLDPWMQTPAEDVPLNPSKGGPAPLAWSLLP
T20 sequence (P04629 33-796): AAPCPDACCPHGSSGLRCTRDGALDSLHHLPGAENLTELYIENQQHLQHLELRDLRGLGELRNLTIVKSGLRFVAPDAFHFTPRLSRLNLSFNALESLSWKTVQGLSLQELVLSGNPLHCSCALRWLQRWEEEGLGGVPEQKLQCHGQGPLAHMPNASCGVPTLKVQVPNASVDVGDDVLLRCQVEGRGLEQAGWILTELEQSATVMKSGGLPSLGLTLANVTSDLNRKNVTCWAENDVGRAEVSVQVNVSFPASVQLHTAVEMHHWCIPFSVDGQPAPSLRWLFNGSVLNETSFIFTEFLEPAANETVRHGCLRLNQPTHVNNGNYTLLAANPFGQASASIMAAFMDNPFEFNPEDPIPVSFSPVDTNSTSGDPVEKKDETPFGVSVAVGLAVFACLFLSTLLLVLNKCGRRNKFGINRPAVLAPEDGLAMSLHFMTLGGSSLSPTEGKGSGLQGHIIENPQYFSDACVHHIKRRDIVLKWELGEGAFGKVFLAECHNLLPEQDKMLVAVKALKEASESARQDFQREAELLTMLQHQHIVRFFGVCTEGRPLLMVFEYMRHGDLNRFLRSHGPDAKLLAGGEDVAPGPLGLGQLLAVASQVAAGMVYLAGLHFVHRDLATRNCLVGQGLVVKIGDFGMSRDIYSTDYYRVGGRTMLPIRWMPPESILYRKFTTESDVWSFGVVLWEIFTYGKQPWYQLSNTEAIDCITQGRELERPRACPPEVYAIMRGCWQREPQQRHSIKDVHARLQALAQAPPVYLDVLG
T6 sequence (P07949 29-1114): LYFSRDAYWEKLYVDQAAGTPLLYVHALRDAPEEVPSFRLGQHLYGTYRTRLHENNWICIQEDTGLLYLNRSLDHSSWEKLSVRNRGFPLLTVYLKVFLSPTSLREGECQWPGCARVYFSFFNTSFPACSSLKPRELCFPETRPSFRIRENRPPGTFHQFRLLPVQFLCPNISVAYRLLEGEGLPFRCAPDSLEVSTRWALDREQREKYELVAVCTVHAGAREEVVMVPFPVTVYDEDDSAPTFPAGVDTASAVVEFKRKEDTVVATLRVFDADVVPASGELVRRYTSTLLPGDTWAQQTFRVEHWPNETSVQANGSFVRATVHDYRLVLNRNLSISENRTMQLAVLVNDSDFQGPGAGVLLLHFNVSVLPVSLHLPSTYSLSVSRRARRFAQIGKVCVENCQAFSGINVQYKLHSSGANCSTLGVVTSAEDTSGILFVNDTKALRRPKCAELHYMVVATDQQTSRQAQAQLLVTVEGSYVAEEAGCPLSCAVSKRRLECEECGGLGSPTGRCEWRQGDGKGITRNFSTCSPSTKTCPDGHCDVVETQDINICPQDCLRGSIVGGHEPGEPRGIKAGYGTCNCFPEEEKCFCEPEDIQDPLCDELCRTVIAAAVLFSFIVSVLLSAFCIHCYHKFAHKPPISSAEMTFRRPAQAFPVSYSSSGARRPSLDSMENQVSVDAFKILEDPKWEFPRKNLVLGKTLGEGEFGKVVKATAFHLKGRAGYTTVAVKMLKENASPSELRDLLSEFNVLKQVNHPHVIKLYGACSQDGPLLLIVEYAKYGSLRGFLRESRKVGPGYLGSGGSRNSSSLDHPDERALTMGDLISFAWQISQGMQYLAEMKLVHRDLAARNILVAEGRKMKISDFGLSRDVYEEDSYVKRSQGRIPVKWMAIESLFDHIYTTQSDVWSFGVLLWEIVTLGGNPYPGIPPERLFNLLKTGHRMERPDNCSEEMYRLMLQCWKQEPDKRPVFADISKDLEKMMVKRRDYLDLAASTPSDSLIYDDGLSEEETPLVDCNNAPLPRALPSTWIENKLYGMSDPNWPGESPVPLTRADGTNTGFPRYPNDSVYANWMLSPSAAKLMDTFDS
T12 sequence (P19784 whole entry): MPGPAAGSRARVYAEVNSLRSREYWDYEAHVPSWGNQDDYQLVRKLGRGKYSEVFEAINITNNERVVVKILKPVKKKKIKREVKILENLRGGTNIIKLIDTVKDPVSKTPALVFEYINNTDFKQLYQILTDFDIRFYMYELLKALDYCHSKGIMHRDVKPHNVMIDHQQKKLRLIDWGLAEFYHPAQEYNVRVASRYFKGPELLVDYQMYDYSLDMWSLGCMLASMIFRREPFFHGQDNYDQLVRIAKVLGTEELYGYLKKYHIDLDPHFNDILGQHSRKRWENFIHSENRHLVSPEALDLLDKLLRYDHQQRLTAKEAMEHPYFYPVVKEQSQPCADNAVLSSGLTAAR
T3 sequence (P06241 whole entry): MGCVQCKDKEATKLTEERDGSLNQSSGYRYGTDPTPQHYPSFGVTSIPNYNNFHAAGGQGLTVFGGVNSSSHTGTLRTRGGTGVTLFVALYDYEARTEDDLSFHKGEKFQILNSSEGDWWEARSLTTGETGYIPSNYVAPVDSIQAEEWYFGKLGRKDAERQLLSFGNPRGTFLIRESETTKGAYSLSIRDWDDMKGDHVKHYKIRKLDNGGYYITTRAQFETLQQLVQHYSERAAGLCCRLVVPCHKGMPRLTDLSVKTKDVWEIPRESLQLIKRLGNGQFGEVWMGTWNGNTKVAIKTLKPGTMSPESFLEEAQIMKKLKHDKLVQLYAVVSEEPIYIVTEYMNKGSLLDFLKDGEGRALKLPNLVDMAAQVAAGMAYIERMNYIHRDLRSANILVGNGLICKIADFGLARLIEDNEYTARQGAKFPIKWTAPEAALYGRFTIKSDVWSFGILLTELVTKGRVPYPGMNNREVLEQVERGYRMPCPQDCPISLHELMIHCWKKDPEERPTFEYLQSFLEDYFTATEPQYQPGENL
T19 sequence (P54756 25-1037): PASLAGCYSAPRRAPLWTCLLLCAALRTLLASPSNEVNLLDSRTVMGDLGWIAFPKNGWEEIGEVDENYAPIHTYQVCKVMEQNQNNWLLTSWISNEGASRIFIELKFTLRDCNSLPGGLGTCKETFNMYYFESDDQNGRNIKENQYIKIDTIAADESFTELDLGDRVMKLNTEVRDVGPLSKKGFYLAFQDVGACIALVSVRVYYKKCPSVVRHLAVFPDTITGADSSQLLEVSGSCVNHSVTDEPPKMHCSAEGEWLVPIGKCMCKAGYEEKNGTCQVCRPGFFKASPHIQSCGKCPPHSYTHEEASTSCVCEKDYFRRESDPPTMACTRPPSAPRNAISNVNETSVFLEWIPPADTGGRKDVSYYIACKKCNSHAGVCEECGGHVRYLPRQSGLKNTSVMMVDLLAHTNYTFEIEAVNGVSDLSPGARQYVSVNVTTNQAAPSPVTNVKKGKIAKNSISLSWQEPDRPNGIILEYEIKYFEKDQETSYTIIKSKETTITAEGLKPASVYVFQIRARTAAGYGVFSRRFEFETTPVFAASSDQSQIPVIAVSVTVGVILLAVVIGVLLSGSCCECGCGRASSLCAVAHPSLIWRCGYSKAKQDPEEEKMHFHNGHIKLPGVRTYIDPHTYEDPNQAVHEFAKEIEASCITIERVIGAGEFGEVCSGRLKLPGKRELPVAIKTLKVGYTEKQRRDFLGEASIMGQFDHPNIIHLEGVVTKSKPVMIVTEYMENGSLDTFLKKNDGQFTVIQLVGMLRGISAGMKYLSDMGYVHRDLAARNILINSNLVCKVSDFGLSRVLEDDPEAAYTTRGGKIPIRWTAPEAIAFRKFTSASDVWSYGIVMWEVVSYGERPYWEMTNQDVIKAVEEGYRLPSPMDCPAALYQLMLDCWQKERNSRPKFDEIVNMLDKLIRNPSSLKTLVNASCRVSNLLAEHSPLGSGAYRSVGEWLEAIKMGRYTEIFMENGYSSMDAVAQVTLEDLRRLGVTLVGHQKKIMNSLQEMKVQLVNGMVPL
T23 sequence (P42680 whole entry): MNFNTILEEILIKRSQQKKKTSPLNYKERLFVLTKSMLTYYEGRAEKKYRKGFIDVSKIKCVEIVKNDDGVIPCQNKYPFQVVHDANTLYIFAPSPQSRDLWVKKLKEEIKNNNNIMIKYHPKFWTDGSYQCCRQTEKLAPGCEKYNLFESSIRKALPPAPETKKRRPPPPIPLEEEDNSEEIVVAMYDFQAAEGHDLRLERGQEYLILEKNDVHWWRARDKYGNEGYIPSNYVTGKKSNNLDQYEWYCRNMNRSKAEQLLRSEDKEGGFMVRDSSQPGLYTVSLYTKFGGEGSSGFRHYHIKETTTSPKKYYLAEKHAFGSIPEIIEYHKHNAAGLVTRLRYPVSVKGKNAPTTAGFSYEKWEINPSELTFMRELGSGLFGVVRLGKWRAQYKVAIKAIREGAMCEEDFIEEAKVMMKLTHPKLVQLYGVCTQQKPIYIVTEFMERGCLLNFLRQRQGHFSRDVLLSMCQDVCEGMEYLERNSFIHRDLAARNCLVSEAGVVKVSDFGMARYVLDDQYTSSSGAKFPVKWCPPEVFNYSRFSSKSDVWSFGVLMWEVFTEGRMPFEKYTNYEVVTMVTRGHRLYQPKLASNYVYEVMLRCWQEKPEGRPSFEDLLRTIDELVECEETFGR

Compound: COCCN1C[C@@H](NC(=O)Nc2c(-c3ccccc3)nc3c(C)nccn23)[C@H](c2ccc(F)c(F)c2)C1 [Example 20, 1-((3S,4R)-4-(3,4-difluorophenyl)-1-(2-methoxyethyl)pyrrolidin-3-yl)-3-(8-methyl-2-phenylimidazo[1,2-a]pyrazin-3-yl)urea]
- Avg. POC (ARK5): 104 POC
- Avg. POC (Rsk1): 115 POC
- Avg. POC (Fyn): 128.5 POC
- Avg. POC (EGFR): 107.5 POC
- Avg. POC (Fes): 113.5 POC
- Avg. POC (Ret): 97.5 POC
- Avg. POC (FGFR1): 102 POC
- Avg. POC (MAP4K2): 112 POC
- Avg. POC (mTOR): 108 POC
- Avg. POC (DAPK1): 103 POC
- Avg. POC (IR): 87.5 POC
- Avg. POC (CK2alpha2): 104 POC
- Avg. POC (PAK6): 102 POC
- Avg. POC (KIT): 117.5 POC
- Avg. POC (DAPK2): 104 POC
- Avg. POC (ERK2): 96 POC
- Avg. POC (FAK): 109.5 POC
- Avg. POC (Pim-2): 122.5 POC
- Avg. POC (EphA5): 123 POC
- Avg. POC (TrkA): 0 POC
- Avg. POC (CDK5/p35): 121 POC
- Avg. POC (TNK2): 94.5 POC
- Avg. POC (TEC Activated): 107 POC
- Avg. POC (c-RAF): 118.5 POC
- selectivity for TrkA (and TrkB) versus other kinases in the panel [1]: largely inactive against off-target kinases
- IC50 [2]: < 100 nM
